Consider 1 molecule from patent publication US6444668B1 (Wyeth, priority 1999, dated 2002).

Structures are written as SMILES.

Assay [1] has as its system rat uterine decidualization. Briefly: Rat decidualization assay. It is filed as in vivo. The following applies: dose 3 mg/kg. As for the experimental part: 1. Rat Decidualization Assay
b. Animals (RACUC Protocol #5002)
The animals are treated once daily for seven days.
Uteri are removed and trimmed of fat.
Body weight: Mean total animal body weight (default-kg)
Decidual response: [(D-C)/C]x100%

The target of a further assay is T1, human PR (Homo sapiens, UniProt P06401).
T1 construct: expressed in transfected cells; host or cells: CV-1 cells (electroporation)
T1 sequence (P06401 1-933): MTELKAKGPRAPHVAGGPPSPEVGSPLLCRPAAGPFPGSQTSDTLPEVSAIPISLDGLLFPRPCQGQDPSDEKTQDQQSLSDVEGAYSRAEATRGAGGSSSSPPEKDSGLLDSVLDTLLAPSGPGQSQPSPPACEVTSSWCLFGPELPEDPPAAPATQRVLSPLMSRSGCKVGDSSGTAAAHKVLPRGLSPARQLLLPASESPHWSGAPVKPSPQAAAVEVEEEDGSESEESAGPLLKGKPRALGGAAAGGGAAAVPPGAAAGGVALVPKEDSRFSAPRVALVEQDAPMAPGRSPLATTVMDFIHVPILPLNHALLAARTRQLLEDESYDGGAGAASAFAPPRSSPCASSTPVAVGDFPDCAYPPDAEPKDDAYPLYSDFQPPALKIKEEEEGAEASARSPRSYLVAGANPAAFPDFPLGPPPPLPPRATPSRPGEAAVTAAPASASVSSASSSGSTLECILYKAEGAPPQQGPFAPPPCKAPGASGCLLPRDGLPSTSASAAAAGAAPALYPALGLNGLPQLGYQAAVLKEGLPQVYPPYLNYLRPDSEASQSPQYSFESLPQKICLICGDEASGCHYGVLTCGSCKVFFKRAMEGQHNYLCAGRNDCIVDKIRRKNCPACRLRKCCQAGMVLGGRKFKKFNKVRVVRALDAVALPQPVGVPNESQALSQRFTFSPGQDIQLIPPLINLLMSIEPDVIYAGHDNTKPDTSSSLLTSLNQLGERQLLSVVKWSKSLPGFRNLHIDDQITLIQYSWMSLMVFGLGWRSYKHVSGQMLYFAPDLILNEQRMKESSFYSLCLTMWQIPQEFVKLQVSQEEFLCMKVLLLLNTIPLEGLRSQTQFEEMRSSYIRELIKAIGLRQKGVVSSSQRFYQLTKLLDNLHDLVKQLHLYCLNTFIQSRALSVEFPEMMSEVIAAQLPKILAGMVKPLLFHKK
Put plainly: PRE-luciferase assay in CV-1 cells. Format: cell-based. The following applies: PR antagonist; CV-1 cells co-transfected with human PR and PRE-luciferase; in the presence of 3 nM progesterone; read-out: hPR CV-1 IC50. As for the experimental part: 2. PRE-luciferase Assay in CV-1 to Cells
The object of this assay is to determine a compound's progestational or antiprogestational potency based on its effect on PRE-luciferase reporter activity in CV-1 cells co-transfected with human PR and PRE-luciferase plasmids. The materials methods used in the assay are as follows.
The growth medium was as follows: DMEM (BioWhittaker) containing 10% (v/v) fetal bovine serum (heat inactivated), 0.1 mM MEM non-essential amino acids, 100U/ml penicillin, […] streptomycin, and 2 mM GlutaMax (GIBCO, BRL). The experimental medium was as follows: DMEM (BioWhittaker), phenol red-free, containing 10% (v/v) charcoal-stripped fetal bovine serum (heat-inactivated), 0.1 mM MEM non-essential amino acids, 100U/ml penicillin […] streptomycin, and 2 mM GlutaMax (GIBCO, BRL).
b. Cell Culture, Transfection, Treatment, and Luciferase Assay
Stock CV-1 cells are maintained in growth medium Co-transfection is done using 1.2×10^7 cells, 5 mg pLEM plasmid with hPR-B inserted at Sph1 and BamH1 sites, 10 mg pGL3 plasmid with two PREs upstream of the luciferase sequence, and 50 mg sonicated calf thymus DNA as carrier DNA in […]. […] Luciferase activity is measured using luciferase reagents from Promega.
Each treatment consists of at least 4 replicates. […] EC50 or IC50 values are calculated from the retransformed values.

Consider `CC1(C)OC(=O)Nc2ccc(-c3coc(C#N)c3)cc21` [Compound 7, 4-(44-Dimethyl-2-oxo-1,4-dihydro-2H-benzo[d][1,3]oxazin-6-yl)-furan-2-carbonitrile], for which the “Decidualization, percentage inhibition at the dose specified” value in assay [1] is 75% @ 3. The concentration for half-maximal inhibition (IC50) (usually the concentration that inhibits the measured activity by half) on human PR amounted to 30 nM.
